Data as given in patent US20240158446A1, “CYCLIC COMPOUND HAVING SELECTIVE INHIBITORY ACTION ON KRAS OVER HRAS AND NRAS” (CHUGAI SEIYAKU KABUSHIKI KAISHA, priority 2021, published 2024).

Assays:
[1] = molecular target: GDP-bound HRAS wild-type protein (Homo sapiens, UniProt P01112); assay: Binding to HRAS by surface plasmon resonance (SPR), Single Cycle Kinetics; details: SPR, GDP-bound HRAS wild-type protein vs GDP-bound KRAS wild-type protein
[2] = molecular target: GDP-bound NRAS wild-type protein (Homo sapiens, UniProt P01111); assay: Binding to NRAS by surface plasmon resonance (SPR), Single Cycle Kinetics; details: SPR, GDP-bound NRAS wild-type protein vs GDP-bound KRAS wild-type protein
Sequence of GDP-bound NRAS wild-type protein (P01111 whole entry): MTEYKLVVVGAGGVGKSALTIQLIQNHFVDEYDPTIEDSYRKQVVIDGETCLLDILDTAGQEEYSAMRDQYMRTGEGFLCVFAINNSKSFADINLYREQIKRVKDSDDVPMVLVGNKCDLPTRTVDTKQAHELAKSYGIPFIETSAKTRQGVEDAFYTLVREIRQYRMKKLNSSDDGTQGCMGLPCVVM

Sequence of GDP-bound HRAS wild-type protein (P01112 whole entry): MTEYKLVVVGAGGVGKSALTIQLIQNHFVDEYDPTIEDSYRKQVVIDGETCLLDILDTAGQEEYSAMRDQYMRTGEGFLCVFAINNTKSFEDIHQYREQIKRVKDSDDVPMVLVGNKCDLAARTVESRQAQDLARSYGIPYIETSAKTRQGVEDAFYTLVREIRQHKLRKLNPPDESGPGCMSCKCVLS

## CC[C@H](C)[C@@H]1NC(=O)[C@H](C2CCC2)N(C)C(=O)C[C@@H](C(=O)N(C)CC)N(C)C(=O)[C@H](C2CCCC2)N(C)C(=O)C2(CCC2)NC(=O)[C@@H]2C[C@H](C)CN2C(=O)[C@H](CCc2cc(F)c(C(F)(F)F)c(F)c2)NC(=O)CN(C)C(=O)[C@H](Cc2ccc(C(F)(F)F)cc2)N2CC/C=C\C[C@@H](C2=O)N(C)C(=O)CN(C)C1=O [PP2082]
[1]
  HRAS/KRAS (ratio of KD value for HRAS to KD value for KRAS): A (a compound having 10 or more and less than 20 is denoted as A)
[2]
  NRAS/KRAS (ratio of KD value for NRAS to KD value for KRAS): AA (a compound having 20 or more is denoted as AA)

## CCC[C@H]1C(=O)N[C@@H]([C@@H](C)CC)C(=O)N(C2CC2)CC(=O)N(C)[C@H]2C/C=C\CCN(C2=O)[C@@H](Cc2ccc(C)cc2)C(=O)N(C)CC(=O)N[C@@H](CCc2ccc(C(F)(F)F)c(OC)c2)C(=O)N2C[C@H](OCC)C[C@H]2C(=O)NC2(CC(C)(C)C2)C(=O)N(C)[C@@H](C2CCCC2)C(=O)N(C)[C@H](C(=O)N(C)C)CC(=O)N1C [PP2097]
[1]
  HRAS/KRAS (ratio of KD value for HRAS to KD value for KRAS): A (a compound having 10 or more and less than 20 is denoted as A)
[2]
  NRAS/KRAS (ratio of KD value for NRAS to KD value for KRAS): A (a compound having 10 or more and less than 20 is denoted as A)

## C#CCN1CC(=O)N(C)[C@H]2C/C=C\CCN(C2=O)[C@@H](Cc2ccc(C)cc2)C(=O)N(C)CC(=O)N[C@@H](CCc2ccc(C(F)(F)F)c(OC)c2)C(=O)N2C[C@H](OCC)C[C@H]2C(=O)NC2(CC(C)(C)C2)C(=O)N(C)[C@@H](C2CCCC2)C(=O)N(C)[C@H](C(=O)N(C)C)CC(=O)N(C)[C@@H](CCC)C(=O)N[C@@H]([C@@H](C)CC)C1=O [PP2099]
[1]
  HRAS/KRAS (ratio of KD value for HRAS to KD value for KRAS): A (a compound having 10 or more and less than 20 is denoted as A)
[2]
  NRAS/KRAS (ratio of KD value for NRAS to KD value for KRAS): A (a compound having 10 or more and less than 20 is denoted as A)

## CCC[C@H]1C(=O)N[C@@H]([C@@H](C)CC)C(=O)N(CCC)CC(=O)N(C)[C@H]2C/C=C\CCN(C2=O)[C@@H](Cc2ccc(C)cc2)C(=O)N(C)CC(=O)N[C@@H](CCc2cc(F)c(C(F)(F)F)c(F)c2)C(=O)N2C[C@H](OCC)C[C@H]2C(=O)NC2(CC(C)(C)C2)C(=O)N(C)[C@@H](C2CCCC2)C(=O)N(C)[C@H](C(=O)N(C)C)CC(=O)N1C [PP2108]
[1]
  HRAS/KRAS (ratio of KD value for HRAS to KD value for KRAS): A (a compound having 10 or more and less than 20 is denoted as A)
[2]
  NRAS/KRAS (ratio of KD value for NRAS to KD value for KRAS): A (a compound having 10 or more and less than 20 is denoted as A)

## CCO[C@@H]1C[C@H]2C(=O)NC3(CC(C)(C)C3)C(=O)N(C)[C@@H](C(CC)CC)C(=O)N(C)[C@H](C(=O)N3CCCC3)CC(=O)N(C)[C@@H](COC)C(=O)N[C@@H]([C@@H](C)CC)C(=O)N(C)CC(=O)N(C)[C@H]3C/C=C\CCN(C3=O)[C@@H](Cc3ccc(C)cc3)C(=O)N(C)CC(=O)N[C@@H](CCc3cc(F)c(C(F)(F)F)c(F)c3)C(=O)N2C1 [PP2139]
[1]
  HRAS/KRAS (ratio of KD value for HRAS to KD value for KRAS): A (a compound having 10 or more and less than 20 is denoted as A)
[2]
  NRAS/KRAS (ratio of KD value for NRAS to KD value for KRAS): AA (a compound having 20 or more is denoted as AA)

## CCO[C@@H]1C[C@H]2C(=O)NC3(CC(C)(C)C3)C(=O)N(C)[C@@H](C(CC)CC)C(=O)N(C)[C@H](C(=O)N(C)C)CC(=O)N(C)[C@@H](CC(C)C)C(=O)N[C@@H]([C@@H](C)CC)C(=O)N(C)CC(=O)N(C)[C@H]3C/C=C\CCN(C3=O)[C@@H](Cc3ccc(C)cc3)C(=O)N(C)CC(=O)N[C@@H](CCc3cc(F)c(C(F)(F)F)c(F)c3)C(=O)N2C1 [PP2141]
[1]
  HRAS/KRAS (ratio of KD value for HRAS to KD value for KRAS): A (a compound having 10 or more and less than 20 is denoted as A)
[2]
  NRAS/KRAS (ratio of KD value for NRAS to KD value for KRAS): A (a compound having 10 or more and less than 20 is denoted as A)

## CCO[C@@H]1C[C@H]2C(=O)NC3(CC(C)(C)C3)C(=O)N(C)[C@@H](C(CC)CC)C(=O)N(C)[C@H](C(=O)N(C)C)CC(=O)N(C)[C@@H](CC3CC3)C(=O)N[C@@H]([C@@H](C)CC)C(=O)N(C)CC(=O)N(C)[C@H]3C/C=C\CCN(C3=O)[C@@H](Cc3ccc(C)cc3)C(=O)N(C)CC(=O)N[C@@H](CCc3ccc(C(F)(F)F)c(Cl)c3)C(=O)N2C1 [PP2142]
[1]
  HRAS/KRAS (ratio of KD value for HRAS to KD value for KRAS): A (a compound having 10 or more and less than 20 is denoted as A)
[2]
  NRAS/KRAS (ratio of KD value for NRAS to KD value for KRAS): AA (a compound having 20 or more is denoted as AA)

## CCO[C@@H]1C[C@H]2C(=O)NC3(CC(C)(C)C3)C(=O)N(C)[C@@H](C(CC)CC)C(=O)N(C)[C@H](C(=O)N(C)C)CC(=O)N(C)[C@@H](CC(C)C)C(=O)N[C@@H]([C@@H](C)CC)C(=O)N(C)CC(=O)N(C)[C@H]3C/C=C\CCN(C3=O)[C@@H](Cc3ccc(C)cc3)C(=O)N(C)CC(=O)N[C@@H](CCc3ccc(C(F)(F)F)c(Cl)c3)C(=O)N2C1 [PP2148]
[1]
  HRAS/KRAS (ratio of KD value for HRAS to KD value for KRAS): A (a compound having 10 or more and less than 20 is denoted as A)
[2]
  NRAS/KRAS (ratio of KD value for NRAS to KD value for KRAS): A (a compound having 10 or more and less than 20 is denoted as A)

## CCO[C@@H]1C[C@H]2C(=O)NC3(CC(C)(C)C3)C(=O)N(C)[C@@H](C(CC)CC)C(=O)N(C)[C@H](C(=O)N(C)C)CC(=O)N(C)[C@@H](C(C)C)C(=O)N[C@@H]([C@@H](C)CC)C(=O)N(C)CC(=O)N(C)[C@H]3C/C=C\CCN(C3=O)[C@@H](Cc3ccc(C)cc3)C(=O)N(C)CC(=O)N[C@@H](CCc3cc(F)c(C(F)(F)F)c(F)c3)C(=O)N2C1 [PP2153]
[1]
  HRAS/KRAS (ratio of KD value for HRAS to KD value for KRAS): A (a compound having 10 or more and less than 20 is denoted as A)
[2]
  NRAS/KRAS (ratio of KD value for NRAS to KD value for KRAS): A (a compound having 10 or more and less than 20 is denoted as A)

## CCO[C@@H]1C[C@H]2C(=O)NC3(CC(C)(C)C3)C(=O)N(C)[C@@H](C(CC)CC)C(=O)N(C)[C@H](C(=O)N(C)C)CC(=O)N(C)[C@@H](C(C)C)C(=O)N[C@@H]([C@@H](C)CC)C(=O)N(C)CC(=O)N(C)[C@H]3C/C=C\CCN(C3=O)[C@@H](Cc3ccc(C)cc3)C(=O)N(C)CC(=O)N[C@@H](CCc3ccc(C(F)(F)F)c(Cl)c3)C(=O)N2C1 [PP2158]
[1]
  HRAS/KRAS (ratio of KD value for HRAS to KD value for KRAS): A (a compound having 10 or more and less than 20 is denoted as A)
[2]
  NRAS/KRAS (ratio of KD value for NRAS to KD value for KRAS): AA (a compound having 20 or more is denoted as AA)

## CCC[C@H]1C(=O)N[C@@H]([C@@H](C)CC)C(=O)N(C)CC(=O)N(C)[C@H]2C/C=C\CCN(C2=O)[C@@H](Cc2ccc(C(F)(F)F)cc2)C(=O)N(C)CC(=O)N[C@@H](CCc2ccc(Cl)c(Cl)c2)C(=O)N2C[C@H](OCC)C[C@H]2C(=O)NC2(CC(C)(C)C2)C(=O)N(C)[C@@H](C(CC)CC)C(=O)N(C)[C@H](C(=O)N(C)C)CC(=O)N1C [PP2175]
[1]
  HRAS/KRAS (ratio of KD value for HRAS to KD value for KRAS): A (a compound having 10 or more and less than 20 is denoted as A)
[2]
  NRAS/KRAS (ratio of KD value for NRAS to KD value for KRAS): AA (a compound having 20 or more is denoted as AA)

## CCO[C@@H]1C[C@H]2C(=O)NC3(CC(C)(C)C3)C(=O)N(C)[C@@H](C(CC)CC)C(=O)N(C)[C@H](C(=O)N(C)C)CC(=O)N(C)[C@@H](CC)C(=O)N[C@@H]([C@@H](C)CC)C(=O)N(C)CC(=O)N(C)[C@H]3C/C=C\CCN(C3=O)[C@@H](Cc3ccc(C(F)(F)F)cc3)C(=O)N(C)CC(=O)N[C@@H](CCc3ccc(Cl)c(Cl)c3)C(=O)N2C1 [PP2179]
[1]
  HRAS/KRAS (ratio of KD value for HRAS to KD value for KRAS): A (a compound having 10 or more and less than 20 is denoted as A)
[2]
  NRAS/KRAS (ratio of KD value for NRAS to KD value for KRAS): AA (a compound having 20 or more is denoted as AA)

## CCO[C@@H]1C[C@H]2C(=O)NC3(CC(C)(C)C3)C(=O)N(C)[C@@H](C(CC)CC)C(=O)N(C)[C@H](C(=O)N(C)C)CC(=O)N(C)[C@@H](CC3CC3)C(=O)N[C@@H]([C@@H](C)CC)C(=O)N(C)CC(=O)N(C)[C@H]3C/C=C\CCN(C3=O)[C@@H](Cc3ccc(C)cc3)C(=O)N(C)CC(=O)N[C@@H](CCc3ccc(Cl)c(Cl)c3)C(=O)N2C1 [PP2182]
[1]
  HRAS/KRAS (ratio of KD value for HRAS to KD value for KRAS): A (a compound having 10 or more and less than 20 is denoted as A)
[2]
  NRAS/KRAS (ratio of KD value for NRAS to KD value for KRAS): AA (a compound having 20 or more is denoted as AA)

## CC[C@H](C)[C@@H]1NC(=O)[C@H](CC(C)C)N(C)C(=O)C[C@@H](C(=O)N(C)C)N(C)C(=O)[C@H](C2CCCC2)N(C)C(=O)C2(CCCC2)NC(=O)[C@@H]2C[C@@H](C)CN2C(=O)[C@H](CCc2cc(F)c(C(F)(F)F)c(F)c2)NC(=O)CN(C)C(=O)[C@H](Cc2ccc(C)cc2)N2CC/C=C\C[C@@H](C2=O)N(C)C(=O)CN(C)C1=O [PP2189]
[1]
  HRAS/KRAS (ratio of KD value for HRAS to KD value for KRAS): A (a compound having 10 or more and less than 20 is denoted as A)
[2]
  NRAS/KRAS (ratio of KD value for NRAS to KD value for KRAS): A (a compound having 10 or more and less than 20 is denoted as A)

## CCC[C@H]1C(=O)N[C@@H](C2CCCC2)C(=O)N(C)CC(=O)N(C)[C@H]2C/C=C\CCN(C2=O)[C@@H](Cc2ccc(C)cc2)C(=O)N(C)CC(=O)N[C@@H](CCc2ccc(C(F)(F)F)c(Cl)c2)C(=O)N2C[C@H](OCC)C[C@H]2C(=O)NC2(CC(C)(C)C2)C(=O)N(C)[C@@H](CC(C)C)C(=O)N(C)[C@H](C(=O)N(C)C)CC(=O)N1C [PP2190]
[1]
  HRAS/KRAS (ratio of KD value for HRAS to KD value for KRAS): A (a compound having 10 or more and less than 20 is denoted as A)
[2]
  NRAS/KRAS (ratio of KD value for NRAS to KD value for KRAS): A (a compound having 10 or more and less than 20 is denoted as A)

## CC[C@@H]1C[C@H]2C(=O)NC3(CCCC3)C(=O)N(C)[C@@H](C3CCCC3)C(=O)N(C)[C@H](C(=O)N(C)C)CC(=O)N(C)[C@@H](CC(C)C)C(=O)N[C@@H]([C@@H](C)CC)C(=O)N(C)CC(=O)N(C)[C@H]3C/C=C\CCN(C3=O)[C@@H](Cc3ccc(C)cc3)C(=O)N(C)CC(=O)N[C@@H](CCc3cc(F)c(C(F)(F)F)c(F)c3)C(=O)N2C1 [PP2191]
[1]
  HRAS/KRAS (ratio of KD value for HRAS to KD value for KRAS): B (a compound having 3 or more and less than 10 is denoted as B)
[2]
  NRAS/KRAS (ratio of KD value for NRAS to KD value for KRAS): A (a compound having 10 or more and less than 20 is denoted as A)

## CCC[C@H]1C(=O)N[C@@H](C2CCCC2)C(=O)N(C)CC(=O)N(C)[C@H]2C/C=C\CCN(C2=O)[C@@H](Cc2ccc(C)cc2)C(=O)N(C)CC(=O)N[C@@H](CCc2ccc(C(F)(F)F)c(Cl)c2)C(=O)N2C[C@H](OCC)C[C@H]2C(=O)NC2(CC(C)(C)C2)C(=O)N(C)[C@@H](CC(F)(F)F)C(=O)N(C)[C@H](C(=O)N(C)C)CC(=O)N1C [PP2192]
[1]
  HRAS/KRAS (ratio of KD value for HRAS to KD value for KRAS): A (a compound having 10 or more and less than 20 is denoted as A)
[2]
  NRAS/KRAS (ratio of KD value for NRAS to KD value for KRAS): A (a compound having 10 or more and less than 20 is denoted as A)
